Assay results published in ChEMBL document CHEMBL4627340, “Design, synthesis, and biological activity of new endomorphin analogs with multi-site modifications” (Bioorg Med Chem, 2020).
The source made the active and inactive calls. The calls are words filed in the database; no cut-off is given here.

Tests used:
Mus musculus [1] = assay: Antinociceptive activity in kunming mouse models of formalin-induced hyperalgesia assessed as reduction in time spent on paw shaking inflammatory phase at 4 nmol, icv measured during phase 2 at 15 to 30 mins relative to control; type: functional; design: scale not given: the % may be the effect or the level left
Mu-type opioid receptor [2] = molecular target: T1, Mu-type opioid receptor (Homo sapiens, UniProt P35372); assay: Agonist activity at mu opioid receptor (unknown origin) expressed in human HEK293 cells assessed as […] in cAMP accumulation using [3H]-cAMP as substrate measured after 30mins by liquid scintillation counting method relative to control; type: functional, cell-based
T1 sequence (P35372 whole entry): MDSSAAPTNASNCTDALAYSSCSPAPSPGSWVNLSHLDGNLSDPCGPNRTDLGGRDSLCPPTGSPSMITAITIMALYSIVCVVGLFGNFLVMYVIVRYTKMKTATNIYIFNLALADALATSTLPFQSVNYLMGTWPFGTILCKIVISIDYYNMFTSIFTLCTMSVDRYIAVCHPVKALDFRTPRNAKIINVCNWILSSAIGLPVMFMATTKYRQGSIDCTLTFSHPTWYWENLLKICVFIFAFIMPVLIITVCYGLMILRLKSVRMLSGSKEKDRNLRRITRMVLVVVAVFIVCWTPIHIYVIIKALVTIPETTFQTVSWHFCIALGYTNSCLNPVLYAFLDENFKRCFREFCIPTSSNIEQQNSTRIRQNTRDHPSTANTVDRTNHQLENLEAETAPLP

[3] = Half life in Kunming mouse serum at 10^-2 mol/L by RP-HPLC analysis; type: ADME, cell-free
Mu-type opioid receptor [4] = molecular target: Mu-type opioid receptor (Rattus norvegicus, UniProt P33535); assay: Displacement of [3H]-DAMGO from Wistar rat mu opioid receptor incubated for 1 hr by liquid scintillation counting method
Mu-type opioid receptor (Rattus norvegicus, UniProt P33535), sequence (P33535 whole entry): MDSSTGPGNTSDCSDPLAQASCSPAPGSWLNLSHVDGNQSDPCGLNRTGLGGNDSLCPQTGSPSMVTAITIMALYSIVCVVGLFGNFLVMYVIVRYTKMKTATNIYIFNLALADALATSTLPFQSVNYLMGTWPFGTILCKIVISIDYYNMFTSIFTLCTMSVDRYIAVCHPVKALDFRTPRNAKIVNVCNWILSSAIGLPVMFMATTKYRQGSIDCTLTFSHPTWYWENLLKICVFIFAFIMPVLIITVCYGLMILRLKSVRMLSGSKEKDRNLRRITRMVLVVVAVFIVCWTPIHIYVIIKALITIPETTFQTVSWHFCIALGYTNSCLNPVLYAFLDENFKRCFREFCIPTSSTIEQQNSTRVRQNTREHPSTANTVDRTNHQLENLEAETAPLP

[5] = Toxicity in kunming mouse assessed as reduction in number of fecal pellet at 1 to 10 mg/kg, iv after 1 hr; type: organism-based; conditions: in vivo
Mus musculus [6] = assay: Antinociceptive activity in kunming mouse models assessed as maximum possible effect at 4 nmol, icv measured from 5 to 60 mins by warm water tail-flick assay relative to control; type: functional
Mus musculus [7] = assay: Antinociceptive activity in kunming mouse models of formalin-induced hyperalgesia assessed as reduction in time spent on paw shaking inflammatory phase at 4 nmol, icv measured during phase 1 at 0 to 5 mins relative to control; type: functional; design: scale not given: the % may be the effect or the level left
Mus musculus [8] = assay: Antinociceptive activity in kunming mouse models of acetic-acid-induced writhing assessed as inhibition of writhing numbers at 3 mg/kg, iv pretreated for 5 mins followed by acetic-acid treatment and measured for 20 mins; type: functional, organism-based
Mus musculus [9] = assay: Antinociceptive activity in kunming mouse models of formalin-induced hyperalgesia assessed as reduction in time spent on paw biting inflammatory phase at 4 nmol, icv measured during phase 2 at 15 to 30 mins relative to control; type: functional; design: scale not given: the % may be the effect or the level left
Mus musculus [10] = assay: Antinociceptive activity in kunming mouse models of formalin-induced hyperalgesia assessed as reduction in time spent on paw shaking inflammatory phase at 0.04 nmol, icv measured during phase 1 at 0 to 5 mins relative to control; type: functional; design: scale not given: the % may be the effect or the level left
Mus musculus [11] = assay: Antinociceptive activity in kunming mouse models assessed as maximum possible effect at 3 mg/kg, iv measured after 5 to 60 mins by warm water tail-flick assay; type: functional
[12] = Toxicity in kunming mouse assessed as reduction in fecal dry weight at 1 to 10 mg/kg, iv after 1 hr; type: organism-based; conditions: in vivo
Mus musculus [13] = assay: Antinociceptive activity in icv administered kunming mouse models of formalin-induced hyperalgesia assessed reduction in pain response of paw licking during inflammatory phase 2 at 15 to 30 mins; type: functional, organism-based
Mus musculus [14] = assay: Antinociceptive activity in kunming mouse models assessed as maximum possible effect at 10 mg/kg, iv measured after 5 to 60 mins co-treated with naloxone by warm water tail-flick assay; type: functional, organism-based
Mus musculus [15] = assay: Antinociceptive activity in kunming mouse models assessed as effective dose after iv administration by warm water tail-flick assay; type: functional
Mus musculus [16] = assay: Antinociceptive activity in iv dosed kunming mouse models of formalin-induced hyperalgesia assessed as reduction in pain response of paw licking measured up to 60 mins; type: functional, organism-based
Mus musculus [17] = assay: Antinociceptive activity in kunming mouse models of formalin-induced hyperalgesia assessed as reduction in pain response of paw licking inflammatory phase at 4 nmol, icv measured during phase 2 at 15 to 30 mins relative to control; type: functional; design: scale not given: the % may be the effect or the level left
Mus musculus [18] = assay: Antinociceptive activity in kunming mouse models assessed as maximum possible effect at 0.4 nmol, icv measured from 5 to 60 mins by warm water tail-flick assay relative to control; type: functional
Mu-type opioid receptor [19] = molecular target: T1, Mu-type opioid receptor; assay: Agonist activity at mu opioid receptor (unknown origin) expressed in human HEK293 cells assessed as […] in cAMP accumulation using [3H]-cAMP as substrate measured after 30mins by liquid scintillation counting method; type: functional, cell-based
Mus musculus [20] = assay: Antinociceptive activity in kunming mouse models of formalin-induced hyperalgesia assessed as reduction in pain response of paw licking inflammatory phase at 4 nmol, icv measured during phase 1 at 0 to 5 mins relative to control; type: functional; design: scale not given: the % may be the effect or the level left
Mus musculus [21] = assay: Antinociceptive activity in kunming mouse models of formalin-induced hyperalgesia assessed as reduction in time spent on paw biting inflammatory phase at 0.04 nmol, icv measured during phase 1 at 0 to 5 mins relative to control; type: functional; design: scale not given: the % may be the effect or the level left
Mus musculus [22] = assay: Antinociceptive activity in kunming mouse models assessed as effective dose after icv administration measured from 5 to 60 mins by warm water tail-flick assay; type: functional
[23] = Half life in Kunming mouse brain homogenate at 10^-2 mol/L by RP-HPLC analysis; type: ADME, tissue-based
Mus musculus [24] = assay: Antinociceptive activity in icv administered kunming mouse models of formalin-induced hyperalgesia assessed reduction in time spent on paw biting during inflammatory phase 2 at 15 to 30 mins; type: functional; design: scale not given: the % may be the effect or the level left
Mus musculus [25] = assay: Antinociceptive activity in kunming mouse models of acetic-acid-induced writhing assessed as inhibition of writhing numbers at 0.04 nmol, icv pretreated for 5 mins followed by acetic-acid treatment and measured for 20 mins relative to control; type: functional; design: scale not given: the % may be the effect or the level left
Mus musculus [26] = assay: Antinociceptive activity in icv administered kunming mouse models of formalin-induced hyperalgesia assessed reduction in time spent on paw shaking during inflammatory phase 2 at 15 to 30 mins; type: functional; design: scale not given: the % may be the effect or the level left
[27] = molecular target: Delta-type opioid receptor (Rattus norvegicus, UniProt P33533); assay: Displacement of [3H]-DPDPE from Wistar rat delta opioid receptor incubated for 3 hrs by liquid scintillation counting method
Delta-type opioid receptor, sequence (P33533 whole entry): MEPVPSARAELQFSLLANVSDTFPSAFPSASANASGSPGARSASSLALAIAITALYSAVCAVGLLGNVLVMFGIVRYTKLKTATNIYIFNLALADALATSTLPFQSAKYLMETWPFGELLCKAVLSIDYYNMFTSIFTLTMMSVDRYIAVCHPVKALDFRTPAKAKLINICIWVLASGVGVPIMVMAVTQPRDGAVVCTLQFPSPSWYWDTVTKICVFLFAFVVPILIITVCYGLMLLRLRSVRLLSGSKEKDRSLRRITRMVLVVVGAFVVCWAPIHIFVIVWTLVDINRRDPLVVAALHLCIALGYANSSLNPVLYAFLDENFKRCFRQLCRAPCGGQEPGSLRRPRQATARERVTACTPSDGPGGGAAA

Mus musculus [28] = assay: Antinociceptive activity in kunming mouse models of formalin-induced hyperalgesia assessed as reduction in pain response of paw licking inflammatory phase at 0.04 nmol, icv measured during phase 1 at 0 to 5 mins relative to control; type: functional; design: scale not given: the % may be the effect or the level left
Mus musculus [29] = assay: Antinociceptive activity in kunming mouse models of formalin-induced hyperalgesia assessed as reduction in time spent on paw biting inflammatory phase at 4 nmol, icv measured during phase 1 at 0 to 5 mins relative to control; type: functional; design: scale not given: the % may be the effect or the level left
[30] = Neurotoxicity in kunming mouse models assessed as effect in locomotor activity at 10 mg/kg,iv measured up to 60 mins by rotarod test; type: toxicity, organism-based; conditions: in vivo, 1 h

In the case of C=C(C(N)=O)[C@@H](NC(=O)[C@H](Cc1c[nH]c2ccccc12)NC(=O)[C@@H](CCCNC(N)=O)NC(=O)[C@@H](N)Cc1ccc(O)cc1)c1ccco1, the Activity (Mus musculus [1]) is reported as 100%, the Emax (Mu-type opioid receptor [2]) is reported as 78.9% and the half-life [3] is reported as greater than 5 h. For the same molecule, the Ki (Mu-type opioid receptor [4]) was 5.82 nM, the Activity [5] was “Toxic” and the Activity (Mus musculus [6]) was 100%. For the same molecule, the Activity (Mus musculus [7]) was 100%, the Activity (Mus musculus [8]) was “Active” and the Activity (Mus musculus [9]) was 100%. For the same molecule, the Activity (Mus musculus [10]) was 100%, the MPE (Mus musculus [11]) was 51.2% and the Activity [12] was “Toxic”. The Activity (Mus musculus [13]) was “Dose-dependent effect”, the Activity (Mus musculus [14]) was “inactive” and the ED50 (Mus musculus [15]) was 2.59 nmol. The Activity (Mus musculus [16]) was “Dose-dependent effect”, the Activity (Mus musculus [17]) was 100% and the MPE (Mus musculus [18]) was 100%. For the same molecule, the EC50 (Mu-type opioid receptor [19]) was 164 nM, the Activity (Mus musculus [20]) was 100% and the Activity (Mus musculus [21]) was 100%. The ED50 (Mus musculus [22]) was 0.037 nmol, the half-life [23] was greater than 5 h and the Activity (Mus musculus [24]) was 100%. The Activity (Mus musculus [25]) was 100%, the Activity (Mus musculus [26]) was 100% and the Ki [27] was greater than 10000 nM. The Activity (Mus musculus [28]) was 100%, the Activity (Mus musculus [29]) was 100% and the Activity [30] was “Non-Toxic”.
